From the supplement of paper PMC10307832

Assays:
Assay in all cases: relative viability (nuclei count vs DMSO), 5 days (fraction); higher = more cells survive
[1] = compound: Cn1cc(-c2cnn3c(N)c(Br)c([C@@H]4CCCNC4)nc23)cn1 + COc1cccc2cc(-c3nc([C@H]4CC[C@H](C(=O)O)CC4)n4ncnc(N)c34)[nH]c12 [OSI-027] (partner 0.5 µM)
In short: (§1)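 Five library-drug doses in √10 steps were combined with a fixed anchor-drug dose, or a single drug was given alone, by pin tool to lung cancer cell lines in 1536-well plates the day after seeding. Nuclei were stained and counted after 5 days. Relative viability is the nuclei count in treated wells over that in vehicle wells, taken as the median of duplicate plates.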

[2] = compound: Cn1cc(-c2cnn3c(N)c(Br)c([C@@H]4CCCNC4)nc23)cn1 + C[C@@H](Oc1cc(-c2cnn(C3CCNCC3)c2)cnc1N)c1c(Cl)ccc(F)c1Cl [Crizotinib] (partner 1 µM)
In short: as §1

[3] = compound: Cn1cc(-c2cnn3c(N)c(Br)c([C@@H]4CCCNC4)nc23)cn1 + C[C@]1(O)C[C@@H](c2nc(-c3ccc4ccc(-c5ccccc5)nc4c3)c3c(N)nccn32)C1 [Linsitinib] (partner 1 µM)
In short: as §1

[4] = compound: Cn1cc(-c2cnn3c(N)c(Br)c([C@@H]4CCCNC4)nc23)cn1 + Cc1cc(Nc2cc(N3CCN(C)CC3)nc(Sc3ccc(NC(=O)C4CC4)cc3)n2)n[nH]1 [Tozasertib] (partner 0.1 µM)
In short: as §1

With SW 1573 the relative viability ([1]; first compound 0.05 µM) was 0.547, the relative viability ([1]; first compound 0.1581 µM) was 0.745 and the relative viability ([1]; first compound 0.5 µM) was 0.606. The relative viability ([1]; first compound 1.581 µM) was 0.505, the relative viability ([1]; first compound 5 µM) was 0.465 and the relative viability ([2]; first compound 0.05 µM) was 0.794. It also gave a relative viability ([2]; first compound 0.1581 µM) of 1.07, a relative viability ([2]; first compound 0.5 µM) of 0.9 and a relative viability ([2]; first compound 1.581 µM) of 0.747. It also gave a relative viability ([2]; first compound 5 µM) of 0.73, a relative viability ([3]; first compound 0.05 µM) of 0.689 and a relative viability ([3]; first compound 0.1581 µM) of 0.775. For the same cell line, the relative viability ([3]; first compound 0.5 µM) was 0.888, the relative viability ([3]; first compound 1.581 µM) was 0.753 and the relative viability ([3]; first compound 5 µM) was 0.805. The relative viability ([4]; first compound 0.05 µM) was 0.175, the relative viability ([4]; first compound 0.1581 µM) was 0.175 and the relative viability ([4]; first compound 0.5 µM) was 0.17. It also gave a relative viability ([4]; first compound 1.581 µM) of 0.176 and a relative viability ([4]; first compound 5 µM) of 0.149.
PC-14 was tested, and the relative viability ([1]; first compound 0.05 µM) was 1.02, the relative viability ([1]; first compound 0.1581 µM) was 0.83 and the relative viability ([1]; first compound 0.5 µM) was 0.638. The relative viability ([1]; first compound 1.581 µM) was 0.248, the relative viability ([1]; first compound 5 µM) was 0.206 and the relative viability ([2]; first compound 0.05 µM) was 0.95. It also gave a relative viability ([2]; first compound 0.1581 µM) of 1.06, a relative viability ([2]; first compound 0.5 µM) of 1.01 and a relative viability ([2]; first compound 1.581 µM) of 0.83. The relative viability ([2]; first compound 5 µM) was 0.386, the relative viability ([3]; first compound 0.05 µM) was 0.854 and the relative viability ([3]; first compound 0.1581 µM) was 1.11. For the same cell line, the relative viability ([3]; first compound 0.5 µM) was 1.05, the relative viability ([3]; first compound 1.581 µM) was 0.877 and the relative viability ([3]; first compound 5 µM) was 0.578. It also gave a relative viability ([4]; first compound 0.05 µM) of 0.634, a relative viability ([4]; first compound 0.1581 µM) of 0.458 and a relative viability ([4]; first compound 0.5 µM) of 0.594. It also gave a relative viability ([4]; first compound 1.581 µM) of 0.438 and a relative viability ([4]; first compound 5 µM) of 0.274.
LK-2 showed a relative viability ([1]; first compound 0.05 µM) of 0.146, a relative viability ([1]; first compound 0.1581 µM) of 0.162 and a relative viability ([1]; first compound 0.5 µM) of 0.172. The relative viability ([1]; first compound 1.581 µM) was 0.179, the relative viability ([1]; first compound 5 µM) was 0.168 and the relative viability ([2]; first compound 0.05 µM) was 0.23. It also gave a relative viability ([2]; first compound 0.1581 µM) of 0.216, a relative viability ([2]; first compound 0.5 µM) of 0.188 and a relative viability ([2]; first compound 1.581 µM) of 0.243. The relative viability ([2]; first compound 5 µM) was 0.232, the relative viability ([3]; first compound 0.05 µM) was 0.548 and the relative viability ([3]; first compound 0.1581 µM) was 0.446. The relative viability ([3]; first compound 0.5 µM) was 0.51, the relative viability ([3]; first compound 1.581 µM) was 0.369 and the relative viability ([3]; first compound 5 µM) was 0.317. For the same cell line, the relative viability ([4]; first compound 0.05 µM) was 0.196, the relative viability ([4]; first compound 0.1581 µM) was 0.17 and the relative viability ([4]; first compound 0.5 µM) was 0.162. For the same cell line, the relative viability ([4]; first compound 5 µM) was 0.161.
Work on COR-L23 yielded a relative viability ([1]; first compound 0.05 µM) of 0.813, a relative viability ([1]; first compound 0.1581 µM) of 0.927 and a relative viability ([1]; first compound 0.5 µM) of 0.671. The relative viability ([1]; first compound 1.581 µM) was 0.393, the relative viability ([1]; first compound 5 µM) was 0.255 and the relative viability ([2]; first compound 0.05 µM) was 0.594. It also gave a relative viability ([2]; first compound 0.1581 µM) of 0.809, a relative viability ([2]; first compound 0.5 µM) of 0.731 and a relative viability ([2]; first compound 1.581 µM) of 0.518. The relative viability ([2]; first compound 5 µM) was 0.179, the relative viability ([3]; first compound 0.05 µM) was 0.835 and the relative viability ([3]; first compound 0.1581 µM) was 1.16. For the same cell line, the relative viability ([3]; first compound 0.5 µM) was 1.05, the relative viability ([3]; first compound 1.581 µM) was 0.688 and the relative viability ([3]; first compound 5 µM) was 0.363. It also gave a relative viability ([4]; first compound 0.05 µM) of 0.201, a relative viability ([4]; first compound 0.1581 µM) of 0.158 and a relative viability ([4]; first compound 0.5 µM) of 0.211. It also gave a relative viability ([4]; first compound 1.581 µM) of 0.163 and a relative viability ([4]; first compound 5 µM) of 0.102.
NCI-H1944 was tested, and the relative viability ([1]; first compound 0.05 µM) was 0.427, the relative viability ([1]; first compound 0.1581 µM) was 0.454 and the relative viability ([1]; first compound 0.5 µM) was 0.39. The relative viability ([1]; first compound 1.581 µM) was 0.349, the relative viability ([1]; first compound 5 µM) was 0.278 and the relative viability ([2]; first compound 0.05 µM) was 0.951. The relative viability ([2]; first compound 0.1581 µM) was 1.21, the relative viability ([2]; first compound 0.5 µM) was 1.09 and the relative viability ([2]; first compound 1.581 µM) was 0.931. For the same cell line, the relative viability ([2]; first compound 5 µM) was 0.717, the relative viability ([3]; first compound 0.05 µM) was 1.16 and the relative viability ([3]; first compound 0.1581 µM) was 1.2. For the same cell line, the relative viability ([3]; first compound 0.5 µM) was 1.12, the relative viability ([3]; first compound 1.581 µM) was 1.06 and the relative viability ([3]; first compound 5 µM) was 0.867. The relative viability ([4]; first compound 0.05 µM) was 0.263, the relative viability ([4]; first compound 0.1581 µM) was 0.273 and the relative viability ([4]; first compound 0.5 µM) was 0.255. The relative viability ([4]; first compound 1.581 µM) was 0.241 and the relative viability ([4]; first compound 5 µM) was 0.21.
NCI-H1650 was tested, and the relative viability ([1]; first compound 0.1581 µM) was 0.634, the relative viability ([1]; first compound 0.5 µM) was 0.726 and the relative viability ([1]; first compound 1.581 µM) was 0.467. It also gave a relative viability ([1]; first compound 5 µM) of 0.345, a relative viability ([2]; first compound 0.05 µM) of 1.08 and a relative viability ([2]; first compound 0.1581 µM) of 0.909. The relative viability ([2]; first compound 0.5 µM) was 1.29, the relative viability ([2]; first compound 1.581 µM) was 0.709 and the relative viability ([2]; first compound 5 µM) was 0.477. It also gave a relative viability ([4]; first compound 0.1581 µM) of 0.408, a relative viability ([4]; first compound 0.5 µM) of 0.33 and a relative viability ([4]; first compound 1.581 µM) of 0.3. It also gave a relative viability ([4]; first compound 5 µM) of 0.261.
NCI-H2170 showed a relative viability ([1]; first compound 0.05 µM) of 0.759, a relative viability ([1]; first compound 0.1581 µM) of 0.801 and a relative viability ([1]; first compound 0.5 µM) of 0.687. It also gave a relative viability ([1]; first compound 1.581 µM) of 0.649, a relative viability ([1]; first compound 5 µM) of 0.653 and a relative viability ([2]; first compound 0.05 µM) of 1.19. It also gave a relative viability ([2]; first compound 0.1581 µM) of 1.21, a relative viability ([2]; first compound 0.5 µM) of 1.19 and a relative viability ([2]; first compound 1.581 µM) of 1.16. For the same cell line, the relative viability ([2]; first compound 5 µM) was 1.12, the relative viability ([4]; first compound 0.05 µM) was 0.78 and the relative viability ([4]; first compound 0.1581 µM) was 0.789. It also gave a relative viability ([4]; first compound 0.5 µM) of 0.644, a relative viability ([4]; first compound 1.581 µM) of 0.894 and a relative viability ([4]; first compound 5 µM) of 0.855.
For NCI-H1563, the relative viability ([1]; first compound 0.05 µM) was 0.737, the relative viability ([1]; first compound 0.1581 µM) was 0.779 and the relative viability ([1]; first compound 0.5 µM) was 0.691. The relative viability ([1]; first compound 1.581 µM) was 0.711, the relative viability ([1]; first compound 5 µM) was 0.703 and the relative viability ([2]; first compound 0.05 µM) was 0.78. It also gave a relative viability ([2]; first compound 0.1581 µM) of 0.812, a relative viability ([2]; first compound 0.5 µM) of 0.933 and a relative viability ([2]; first compound 1.581 µM) of 0.782. The relative viability ([2]; first compound 5 µM) was 0.8, the relative viability ([3]; first compound 0.05 µM) was 1.13 and the relative viability ([3]; first compound 0.1581 µM) was 1.27. The relative viability ([3]; first compound 0.5 µM) was 1.26, the relative viability ([3]; first compound 1.581 µM) was 1.17 and the relative viability ([3]; first compound 5 µM) was 0.848.
Work on EBC-1 yielded a relative viability ([2]; first compound 0.05 µM) of 0.179, a relative viability ([2]; first compound 0.1581 µM) of 0.179 and a relative viability ([2]; first compound 0.5 µM) of 0.186. The relative viability ([2]; first compound 1.581 µM) was 0.174, the relative viability ([2]; first compound 5 µM) was 0.17 and the relative viability ([3]; first compound 0.05 µM) was 0.937. For the same cell line, the relative viability ([3]; first compound 0.1581 µM) was 1.09, the relative viability ([3]; first compound 0.5 µM) was 0.933 and the relative viability ([3]; first compound 1.581 µM) was 0.884. It also gave a relative viability ([3]; first compound 5 µM) of 0.799.
Cell Line Calu-6 has a relative viability ([2]; first compound 0.05 µM) of 0.964, a relative viability ([2]; first compound 0.1581 µM) of 0.643 and a relative viability ([2]; first compound 0.5 µM) of 0.603. For the same cell line, the relative viability ([2]; first compound 1.581 µM) was 0.253, the relative viability ([2]; first compound 5 µM) was 0.167 and the relative viability ([3]; first compound 0.05 µM) was 0.898. It also gave a relative viability ([3]; first compound 0.1581 µM) of 1.1, a relative viability ([3]; first compound 0.5 µM) of 0.945 and a relative viability ([3]; first compound 1.581 µM) of 0.52. It also gave a relative viability ([3]; first compound 5 µM) of 0.176.
